From US20220153744A1, “SOLID STATE FORMS OF ACALABRUTINIB” (ASSIA CHEMICAL INDUSTRIES LTD., priority 2019, published 2022)

Assays:
Assay type in all cases: physicochemical
[1] = Polymorphic stability on storage at defined temperature and relative humidity
Excerpt: (§1) Crystalline Form ACB3 of Acalabrutinib may have advantageous properties as described herein above.

[2] = Polymorphic stability on heating; details: heated to about 100° C. over about 30 minutes
Excerpt: as §1

[3] = Polymorphic stability towards grinding
Excerpt: as §1

CC#CC(=O)N1CCC[C@H]1c1nc(-c2ccc(C(=O)Nc3ccccn3)cc2)c2c(N)nccn12 [Form ACB3, 4-{8-Amino-3-[(2S)-1-(2-butynoyl)-2-pyrrolidinyl]imidazo[1,5-a]pyrazin-1-yl}-N-(2-pyridinyl)benzamide]
polymorphically stable: polymorphic stability on storage ([1]; 40° C., RH of about 75%, at least 1 month) | polymorphic stability on storage ([1]; room temperature, RH of about 60%, at least 1 month) | polymorphic stability on storage ([1]; room temperature, RH of about 80%, at least 7 days) | polymorphic stability when heated [2] | polymorphic stability towards solvent grinding ([3]; solvent grinding) | polymorphic stability towards strong dry grinding ([3]; strong dry grinding)
